One experiment concerns the target huSTING (WT) (Homo sapiens (Human), UniProt Q86WV6, H232R). As to the kind of experiment: THP-1 reporter cell line assay, THP-1-Dual KI-hSTING-R232 cells. In kind it is cell-based. The note with it: read-out: Cellular EC50 huSTING (WT).
For another experiment, the target named is huSTING (HAQ) (Homo sapiens (Human), UniProt Q86WV6, G230A/H232R/R293Q/R71H). As to the kind of experiment: THP-1 reporter cell line assay, THP-1 STING Lucia ISG cells. In kind it is cell-based. Conditions: THP-1 STING Lucia ISG cells, read-out: Cellular EC50 huSTING (HAQ).

Molecules are shown by their SMILES. Like-named read-outs stand apart in the source and are kept apart here.

huSTING (HAQ), sequence (Q86WV6 whole entry R71H/G230A/H232R/R293Q): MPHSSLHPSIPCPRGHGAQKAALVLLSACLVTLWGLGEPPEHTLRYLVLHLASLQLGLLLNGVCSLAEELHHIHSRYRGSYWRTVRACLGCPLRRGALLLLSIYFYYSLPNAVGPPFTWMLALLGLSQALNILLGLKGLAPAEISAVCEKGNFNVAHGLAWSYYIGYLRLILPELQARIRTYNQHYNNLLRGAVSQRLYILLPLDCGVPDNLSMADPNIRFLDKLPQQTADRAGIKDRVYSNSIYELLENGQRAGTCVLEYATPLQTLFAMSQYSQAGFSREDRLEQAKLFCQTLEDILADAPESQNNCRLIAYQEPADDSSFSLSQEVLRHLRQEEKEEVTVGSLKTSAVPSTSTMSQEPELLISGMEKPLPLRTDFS
huSTING (WT), sequence (Q86WV6 whole entry H232R): as the sequence (Q86WV6 whole entry R71H/G230A/H232R/R293Q) above, with H71R, A230G, Q293R counted along it

As for `CCOC(=O)c1sc2ccc(F)c(F)c2c1COc1ccc(C(N)=O)cc1` [Example 15, Ethyl 3-((4-carbamoylphenoxy)methyl)-4,5-difluorobenzo[b]thiophene-2-carboxylate], the EC50 came out at 2.57 µM at huSTING (WT) and 2.4 µM on huSTING (HAQ) (24 h, top concentration 50 μM).

For `CCOC(=O)c1sc2ccc(C)c(Cl)c2c1COc1ccc(C(N)=O)cc1` [Example 17, Ethyl 3-((4-carbamoylphenoxy)methyl)-4-chloro-5-methylbenzo[b]thiophene-2-carboxylate], the EC50 at huSTING (WT) is above 50 µM; at huSTING (HAQ) (24 h, top concentration 50 μM), 14.8 µM.

`CCOC(=O)c1sc2cc(Cl)cc(F)c2c1COc1ccc(C(N)=O)cc1` [Example 19, Ethyl 3-((4-carbamoylphenoxy)methyl)-6-chloro-4-fluorobenzo[b]thiophene-2-carboxylate]: the EC50 was above 50 µM at huSTING (WT) and above 50 µM at huSTING (HAQ) (24 h, top concentration 50 μM).

Consider `CCOC(=O)c1sc2cccc(Br)c2c1COc1ccc(C(N)=O)cc1` [Example 21, Ethyl 4-bromo-3-((4-carbamoylphenoxy)methyl)benzo[b]thiophene-2-carboxylate], for which the EC50 was 0.576 µM on huSTING (WT) and 0.474 µM at huSTING (HAQ) (24 h, top concentration 50 μM).

For the molecule `CCOC(=O)c1sc2cccnc2c1COc1ccc(C(N)=O)cc1` [Example 23, Ethyl 3-((4-carbamoylphenoxy)methyl)thieno[3,2-b]pyridine-2-carboxylate], the EC50 on huSTING (WT) is 16.9 µM; on huSTING (HAQ) (24 h, top concentration 50 μM), 7.61 µM.

Take `CCOC(=O)c1sc2cccc(Cl)c2c1COc1ccc(C(N)=O)c(F)c1` [Example 25, Ethyl 3-((4-carbamoyl-3-fluorophenoxy)methyl)-4-chlorobenzo[b]thiophene-2-carboxylate]: the EC50 was 1.42 µM at huSTING (WT) and 1.6 µM at huSTING (HAQ) (24 h, top concentration 50 μM).

In the case of `CCOC(=O)c1sc2cccc(Cl)c2c1COc1cc(F)c(C(N)=O)c(F)c1` [Example 27, Ethyl 3-((4-carbamoyl-3,5-difluorophenoxy)methyl)-4-chlorobenzo[b]thiophene-2-carboxylate], the 50% effective concentration (EC50) on huSTING (WT) was above 50 µM; on huSTING (HAQ) (24 h, top concentration 50 μM), above 50 µM.

As for `CCOC(=O)c1sc2cccc(Cl)c2c1COc1ccc(C(N)=O)cc1OC` [Example 29, Ethyl 3-((4-carbamoyl-2-methoxyphenoxy)methyl)-4-chlorobenzo[b]thiophene-2-carboxylate], the EC50 on huSTING (WT) stood at 6.5 µM; at huSTING (HAQ) (24 h, top concentration 50 μM) it was 2.68 µM.

For the molecule `CCOC(=O)c1sc2cc(F)cc(F)c2c1COc1ccc(C(N)=O)cc1` [Example 31, Ethyl 3-((4-carbamoylphenoxy)methyl)-4,6-difluorobenzo[b]thiophene-2-carboxylate], the EC50 was found to be 6.91 µM on huSTING (WT) and 6.76 µM at huSTING (HAQ) (24 h, top concentration 50 μM).

As to `CCOC(=O)c1sc2cccc(OC)c2c1COc1ccc(C(N)=O)cc1` [Example 33, Ethyl 3-((4-carbamoylphenoxy)methyl)-4-methoxybenzo[b]thiophene-2-carboxylate], the EC50 is 0.891 µM on huSTING (WT) and 0.665 µM at huSTING (HAQ) (24 h, top concentration 50 μM).

As to `CCOC(=O)c1sc2cccc(C(F)(F)F)c2c1COc1ccc(C(N)=O)cc1` [Example 35, Ethyl 3-((4-carbamoylphenoxy)methyl)-4-(trifluoromethyl)benzo[b]thiophene-2-carboxylate], the EC50 is 1.28 µM on huSTING (WT) and 0.655 µM on huSTING (HAQ) (24 h, top concentration 50 μM).

In the case of `CCOC(=O)c1sc2cccc(Cl)c2c1COc1ccc(C(N)=O)cc1Cl` [Example 37, Ethyl 3-((4-carbamoyl-2-chlorophenoxy)methyl)-4-chlorobenzo[b]thiophene-2-carboxylate], the half-maximal effective concentration (EC50) on huSTING (WT) was found to be 4.77 µM; on huSTING (HAQ) (24 h, top concentration 50 μM), 3.84 µM.

In the case of `CCOC(=O)c1sc2cccc(Cl)c2c1COc1c(Cl)cc(C(N)=O)cc1Cl` [Example 39, Ethyl 3-((4-carbamoyl-2,6-dichlorophenoxy)methyl)-4-chlorobenzo[b]thiophene-2-carboxylate], the EC50 is 1.78 µM on huSTING (WT) and 1.48 µM at huSTING (HAQ) (24 h, top concentration 50 μM).

For `CCOC(=O)c1sc2cccc(Cl)c2c1COc1c(OC)cc(C(N)=O)cc1OC` [Example 41, Ethyl 3-((4-carbamoyl-2,6-dimethoxyphenoxy)methyl)-4-chlorobenzo[b]thiophene-2-carboxylate], the EC50 at huSTING (WT) was 2.46 µM; on huSTING (HAQ) (24 h, top concentration 50 μM) it was 0.798 µM.

On to `CCOC(=O)c1sc2cccc(Cl)c2c1COc1ccc(C(N)=O)cc1C#N` [Example 43, Ethyl 3-((4-carbamoyl-2-cyanophenoxy)methyl)-4-chlorobenzo[b]thiophene-2-carboxylate], for which the half-maximal effective concentration (EC50) on huSTING (WT) was found to be 3.78 µM; at huSTING (HAQ) (24 h, top concentration 50 μM) it was 1.35 µM.

With `CCOC(=O)c1sc2cccc(Cl)c2c1COc1ccc(C(N)=O)nc1` [Example 45, Ethyl 3-(((6-carbamoylpyridin-3-yl)oxy)methyl)-4-chlorobenzo[b]thiophene-2-carboxylate], the half-maximal effective concentration (EC50) at huSTING (WT) was found to be 24.7 µM; on huSTING (HAQ) (24 h, top concentration 50 μM), 12.9 µM.

Turning to `CCOC(=O)c1sc2cccc(Cl)c2c1COc1ccc2c(N)noc2c1` [Example 47, Ethyl 3-(((3-aminobenzo[d]isoxazol-6-yl)oxy)methyl)-4-chlorobenzo[b]thiophene-2-carboxylate], the EC50 is above 50 µM at huSTING (WT) and 18.7 µM at huSTING (HAQ) (24 h, top concentration 50 μM).

`CCOC(=O)c1sc2cccc(F)c2c1COc1ccc(C(N)=O)c(Cl)c1` [Example 49, Ethyl 3-((4-carbamoyl-3-chlorophenoxy)methyl)-4-fluorobenzo[b]thiophene-2-carboxylate]: the 50% effective concentration (EC50) on huSTING (WT) is 24.1 µM; at huSTING (HAQ) (24 h, top concentration 50 μM), 17.2 µM.

Take `CCOC(=O)c1sc2cccc(F)c2c1COc1ccc(C(N)=O)c(C(F)(F)F)c1` [Example 51, Ethyl 3-((4-carbamoyl-3-(trifluoromethyl)phenoxy)methyl)-4-fluorobenzo[b]thiophene-2-carboxylate]: the EC50 is above 50 µM on huSTING (WT) and above 50 µM on huSTING (HAQ) (24 h, top concentration 50 μM).

As to `CCOC(=O)c1sc2cccc(F)c2c1COc1ccc(C(N)=O)c(C)c1` [Example 53, Ethyl 3-((4-carbamoyl-3-methylphenoxy)methyl)-4-fluorobenzo[b]thiophene-2-carboxylate], the EC50 is above 50 µM at huSTING (WT) and above 50 µM at huSTING (HAQ) (24 h, top concentration 50 μM).

On to `CCOC(=O)c1sc2cccc(F)c2c1COc1c(F)cc(C(N)=O)cc1Br` [Example 55, Ethyl 3-((2-bromo-4-carbamoyl-6-fluorophenoxy)methyl)-4-fluorobenzo[b]thiophene-2-carboxylate], for which the EC50 is above 50 µM on huSTING (WT) and 3.6 µM on huSTING (HAQ) (24 h, top concentration 50 μM).

Regarding `CCOC(=O)c1sc2cccc(C3CC3)c2c1COc1ccc(C(N)=O)cc1` [Example 60, Ethyl 3-((4-carbamoylphenoxy)methyl)-4-cyclopropylbenzo[b]thiophene-2-carboxylate], the EC50 at huSTING (WT) stood at 47.4 µM; at huSTING (HAQ) (24 h, top concentration 50 μM), 0.827 µM.

Take `CCOC(=O)c1sc2cccc(C#N)c2c1COc1ccc(C(N)=O)cc1` [Example 62, Ethyl 3-((4-carbamoylphenoxy)methyl)-4-cyanobenzo[b]thiophene-2-carboxylate]: the EC50 came to 1.65 µM on huSTING (WT) and 0.95 µM on huSTING (HAQ) (24 h, top concentration 50 μM).

In the case of `CCOC(=O)c1sc2cccc(Cl)c2c1COc1ccc(C(N)=O)c(F)c1F` [Example 66, Ethyl 3-((4-carbamoyl-2,3-difluorophenoxy)methyl)-4-chlorobenzo[b]thiophene-2-carboxylate], the EC50 on huSTING (WT) is above 50 µM; on huSTING (HAQ) (24 h, top concentration 50 μM), 8.03 µM.

As to `CCOC(=O)c1sc2cccc(Cl)c2c1COc1c(F)cc(C(N)=O)cc1F` [Example 68, Ethyl 3-((4-carbamoyl-2,6-difluorophenoxy)methyl)-4-chlorobenzo[b]thiophene-2-carboxylate], the EC50 on huSTING (WT) was 1.63 µM; on huSTING (HAQ) (24 h, top concentration 50 μM) it was 0.26 µM.

Take `CCOC(=O)c1sc2cccc(Cl)c2c1COc1c(C)cc(C(N)=O)cc1OC` [Example 72, Ethyl 3-((4-carbamoyl-2-methoxy-6-methylphenoxy)methyl)-4-chlorobenzo[b]thiophene-2-carboxylate]: the EC50 on huSTING (WT) was above 50 µM; at huSTING (HAQ) (24 h, top concentration 50 μM), 7.44 µM.

Turning to `CCOC(=O)c1sc2cccc(Cl)c2c1CNc1ccc(C(N)=O)cc1` [Example 75, Ethyl 3-(((4-carbamoylphenyl)amino)methyl)-4-chlorobenzo[b]thiophene-2-carboxylate], the EC50 on huSTING (WT) is above 50 µM; at huSTING (HAQ) (24 h, top concentration 50 μM), 17.9 µM.

Consider `CCOC(=O)c1sc2cccc(C)c2c1COc1ccc(C(N)=O)cc1` [Example 77, Ethyl 3-((4-carbamoylphenoxy)methyl)-4-methylbenzo[b]thiophene-2-carboxylate], for which the concentration giving a half-maximal response (EC50) was 3.22 µM at huSTING (WT) and 0.702 µM at huSTING (HAQ) (24 h, top concentration 50 μM).

As to `CCOC(=O)c1sc2c(F)ccc(F)c2c1COc1c(F)cc(C(N)=O)cc1F` [Example 79, Ethyl 3-((4-carbamoyl-2,6-difluorophenoxy)methyl)-4,7-difluorobenzo[b]thiophene-2-carboxylate], the half-maximal effective concentration (EC50) on huSTING (WT) was determined as 0.474 µM; at huSTING (HAQ) (24 h, top concentration 50 μM), 0.17 µM.

For `CCOC(=O)c1sc2c(F)ccc(F)c2c1COc1ccc(C(N)=O)cc1` [Example 81, Ethyl 3-((4-carbamoylphenoxy)methyl)-4,7-difluorobenzo[b]thiophene-2-carboxylate], the EC50 on huSTING (WT) was 20.7 µM; at huSTING (HAQ) (24 h, top concentration 50 μM), 2.79 µM.

Turning to `CCOC(=O)c1sc2ccc(F)c(Cl)c2c1COc1ccc(C(N)=O)cc1` [Example 83, Ethyl 3-((4-carbamoylphenoxy)methyl)-4-chloro-5-fluorobenzo[b]thiophene-2-carboxylate], the 50% effective concentration (EC50) on huSTING (WT) is above 50 µM; at huSTING (HAQ) (24 h, top concentration 50 μM) it was 2.61 µM.

Take `CCOC(=O)c1sc2ccc(F)c(Cl)c2c1COc1c(F)cc(C(N)=O)cc1F` [Example 85, Ethyl 3-((4-carbamoyl-2,6-difluorophenoxy)methyl)-4-chloro-5-fluorobenzo[b]thiophene-2-carboxylate]: the half-maximal effective concentration (EC50) was above 50 µM at huSTING (WT) and 1.63 µM at huSTING (HAQ) (24 h, top concentration 50 μM).

As for `CCOC(=O)c1sc2cccc(Br)c2c1COc1c(F)cc(C(N)=O)cc1F` [Example 89, Ethyl 4-bromo-3-((4-carbamoyl-2,6-difluorophenoxy)methyl)benzo[b]thiophene-2-carboxylate], the 50% effective concentration (EC50) at huSTING (WT) is 0.148 µM; on huSTING (HAQ) (modified method, top concentration 40 μM, pin tool, EnVision), 0.016 µM.

Usually EC50 stands for the concentration giving half of the maximal effect.

Source of the values: patent publication US11613525B2 (CTXT PTY LIMITED, priority 2018, dated 2023).
